# Assay results reported in ChEMBL document CHEMBL4425166, “Discovery of Pyridinyl Acetamide Derivatives as Potent, Selective, and Orally Bioavailable Porcupine Inhibitors” (ACS Med Chem Lett, 2016).
# Activity calls are given as the source filed them. No cut-off for these calls is given here.
# Key:
# [1] = molecular target: T1, Protein-serine O-palmitoleoyltransferase porcupine (Mus musculus, UniProt Q9JJJ7); experiment: Inhibition of PORCN in […] overexpressing Wnt3A co-cultured with TM3 cells transfected with Wnt-luciferase gene after 24 hrs by luminescence assay; format: cell-based
# T1 sequence (Q9JJJ7 whole entry): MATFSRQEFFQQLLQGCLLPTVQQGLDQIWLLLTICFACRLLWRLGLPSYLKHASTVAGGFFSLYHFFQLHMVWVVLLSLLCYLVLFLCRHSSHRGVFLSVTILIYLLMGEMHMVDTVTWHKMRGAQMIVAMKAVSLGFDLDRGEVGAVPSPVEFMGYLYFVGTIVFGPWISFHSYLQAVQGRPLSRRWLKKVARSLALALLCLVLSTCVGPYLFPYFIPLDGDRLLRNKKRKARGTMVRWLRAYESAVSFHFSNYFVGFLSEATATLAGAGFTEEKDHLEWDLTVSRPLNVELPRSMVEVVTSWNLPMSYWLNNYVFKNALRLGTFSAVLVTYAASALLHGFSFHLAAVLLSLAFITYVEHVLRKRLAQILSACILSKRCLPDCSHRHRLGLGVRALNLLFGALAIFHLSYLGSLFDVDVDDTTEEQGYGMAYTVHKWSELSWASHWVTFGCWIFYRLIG
# [2] = Aqueous solubility of compound in buffer of pH 6.8 after 24 hrs by UV-based high throughput assay; format: physicochemical
# [3] = Clearance in Balb/c mouse at 2 mg/kg, iv after 24 hrs by LC/MS/MS analysis; format: ADME, organism-based; conditions: in vivo
# [4] = Clearance in rat by LC/MS/MS analysis; format: ADME; conditions: in vivo
# [5] = Clearance in dog by LC/MS/MS analysis; format: ADME, Canis lupus familiaris; conditions: in vivo
# [6] = Volume of distribution at steady state in Balb/c mouse at 2 mg/kg, iv after 24 hrs by LC/MS/MS analysis; format: ADME, organism-based; conditions: in vivo, read-out: Vdss
# [7] = Volume of distribution at steady state in rat by LC/MS/MS analysis; format: ADME; conditions: in vivo, read-out: Vdss
# [8] = Volume of distribution at steady state in dog by LC/MS/MS analysis; format: ADME, Canis lupus familiaris; conditions: in vivo, read-out: Vdss
# [9] = Terminal half life in Balb/c mouse at 2 mg/kg, iv or 5 mg/kg via oral gavage by LC/MS/MS analysis; format: ADME, organism-based; conditions: in vivo, read-out: beta t1/2 (converted)
# [10] = Terminal half life in rat by LC/MS/MS analysis; format: ADME; conditions: in vivo, read-out: beta t1/2 (converted)
# [11] = Terminal half life in dog by LC/MS/MS analysis; format: ADME, Canis lupus familiaris; conditions: in vivo, read-out: beta t1/2 (converted)
# [12] = Oral bioavailability in Balb/c mouse at 5 mg/kg via gavage by LC/MS/MS analysis; format: ADME, organism-based; conditions: in vivo
# [13] = Oral bioavailability in rat by LC/MS/MS analysis; format: ADME, organism-based; conditions: in vivo
# [14] = Oral bioavailability in dog by LC/MS/MS analysis; format: ADME, organism-based, Canis lupus familiaris; conditions: in vivo
# [15] = molecular target: Cytochrome P450 2C9 (Homo sapiens, UniProt P11712); experiment: Inhibition of CYP2C9 (unknown origin); format: ADME
# Cytochrome P450 2C9, sequence (P11712 whole entry): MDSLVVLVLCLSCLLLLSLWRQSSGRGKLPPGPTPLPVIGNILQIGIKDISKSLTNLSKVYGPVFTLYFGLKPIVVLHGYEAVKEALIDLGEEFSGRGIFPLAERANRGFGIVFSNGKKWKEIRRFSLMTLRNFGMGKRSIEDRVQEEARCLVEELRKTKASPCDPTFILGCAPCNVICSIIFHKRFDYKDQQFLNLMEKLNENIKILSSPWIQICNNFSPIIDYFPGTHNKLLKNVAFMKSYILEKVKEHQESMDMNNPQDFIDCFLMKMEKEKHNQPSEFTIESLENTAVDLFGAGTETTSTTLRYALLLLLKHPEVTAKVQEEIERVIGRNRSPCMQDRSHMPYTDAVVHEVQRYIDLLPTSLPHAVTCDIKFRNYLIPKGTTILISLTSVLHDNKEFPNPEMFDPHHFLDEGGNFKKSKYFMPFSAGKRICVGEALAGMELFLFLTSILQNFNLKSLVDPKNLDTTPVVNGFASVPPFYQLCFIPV
# [16] = molecular target: Cytochrome P450 2D6 (Homo sapiens, UniProt P10635); experiment: Inhibition of CYP2D6 (unknown origin); format: ADME
# Cytochrome P450 2D6, sequence (P10635 whole entry): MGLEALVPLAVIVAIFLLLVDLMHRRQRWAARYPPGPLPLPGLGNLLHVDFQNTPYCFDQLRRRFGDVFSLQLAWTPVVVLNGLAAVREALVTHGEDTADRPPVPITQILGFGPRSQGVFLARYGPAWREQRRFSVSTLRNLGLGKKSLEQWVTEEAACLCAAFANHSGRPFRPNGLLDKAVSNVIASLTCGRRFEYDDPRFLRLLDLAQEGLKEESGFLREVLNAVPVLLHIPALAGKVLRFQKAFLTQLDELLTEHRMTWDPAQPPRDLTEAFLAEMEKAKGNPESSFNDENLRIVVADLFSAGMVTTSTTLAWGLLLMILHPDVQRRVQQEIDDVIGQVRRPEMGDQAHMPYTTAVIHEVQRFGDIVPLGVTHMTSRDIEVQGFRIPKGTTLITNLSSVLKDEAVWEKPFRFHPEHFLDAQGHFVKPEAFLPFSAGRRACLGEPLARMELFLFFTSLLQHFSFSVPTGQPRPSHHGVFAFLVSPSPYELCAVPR
# [17] = molecular target: Cytochrome P450 3A4 (Homo sapiens, UniProt P08684); experiment: Inhibition of CYP3A4 (unknown origin); format: ADME
# Cytochrome P450 3A4, sequence (P08684 whole entry): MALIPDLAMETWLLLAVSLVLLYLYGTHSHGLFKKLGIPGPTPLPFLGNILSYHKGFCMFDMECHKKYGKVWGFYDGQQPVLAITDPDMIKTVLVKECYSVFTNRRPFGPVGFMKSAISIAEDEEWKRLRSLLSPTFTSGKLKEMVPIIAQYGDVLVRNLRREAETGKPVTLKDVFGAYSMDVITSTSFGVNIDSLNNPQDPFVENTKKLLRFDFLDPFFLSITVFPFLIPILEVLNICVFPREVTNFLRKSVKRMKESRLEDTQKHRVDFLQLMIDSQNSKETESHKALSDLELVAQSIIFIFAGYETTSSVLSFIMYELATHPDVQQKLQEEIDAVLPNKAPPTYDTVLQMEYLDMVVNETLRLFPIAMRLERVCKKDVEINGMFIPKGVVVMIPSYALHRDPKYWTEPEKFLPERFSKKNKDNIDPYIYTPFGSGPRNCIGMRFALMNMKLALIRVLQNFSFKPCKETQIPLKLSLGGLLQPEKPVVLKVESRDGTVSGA
# [18] = Protein binding in mouse plasma by rapid equilibrium dialysis; format: ADME, cell-free; conditions: read-out: PPB (converted)
# [19] = Protein binding in rat plasma by rapid equilibrium dialysis; format: ADME, cell-free; conditions: read-out: PPB (converted)
# [20] = Protein binding in dog plasma by rapid equilibrium dialysis; format: ADME, cell-free, Canis lupus familiaris; conditions: read-out: PPB
# [21] = Protein binding in monkey plasma by rapid equilibrium dialysis; format: ADME, cell-free, Macaca mulatta; conditions: rhesus monkey, read-out: PPB (converted)
# [22] = Protein binding in human plasma by rapid equilibrium dialysis; format: ADME, cell-free; conditions: read-out: PPB (converted)
# [23] = Apparent permeability across apical to basolateral side of human Caco2 cells; format: ADME, cell-based; conditions: Caco-2
# [24] = Efflux ratio of permeability in human Caco2 cells; format: ADME, cell-based; conditions: Caco-2
# [25] = test system: Mus musculus; experiment: Inhibition of Axin2 mRNA level in nude mouse MMTV-Wnt1 model at 3 mg/kg administered as oral gavage measured at 5 hrs by RT-PCR analysis; format: functional
# [26] = test system: Mus musculus; experiment: Inhibition of Axin2 mRNA level in nude mouse MMTV-Wnt1 model at 3 mg/kg administered as oral gavage measured after 24 hrs by RT-PCR analysis; format: functional, organism-based
# [27] = test system: Mus musculus; experiment: Antitumor activity in nude mouse MMTV-Wnt1 model assessed as tumor growth inhibition at 0.3 mg/kg, po qd administered for 2 weeks relative to control; format: functional
# [28] = test system: Mus musculus; experiment: Antitumor activity in nude mouse MMTV-Wnt1 model assessed as tumor growth inhibition at 1 mg/kg, po qd administered for 2 weeks relative to control; format: functional
# [29] = test system: Mus musculus; experiment: Antitumor activity in nude mouse MMTV-Wnt1 model assessed as tumor growth inhibition at 3 mg/kg, po qd administered for 2 weeks relative to control; format: functional
# [30] = Toxicity in nude mouse MMTV-Wnt1 model assessed as body weight loss at 0.3 to 3 mg/kg, po qd administered for 2 weeks measured during compound dosing; format: organism-based; conditions: in vivo, 336 h
# [31] = test system: Cytochrome P450; experiment: Inhibition of CYP450 (unknown origin) up to 10 uM; format: ADME, protein assay; conditions: human
# [32] = molecular target: T2, Protein-serine O-palmitoleoyltransferase porcupine (Homo sapiens, UniProt Q9H237); experiment: Displacement of [3H]-GNF-1331 from human PORCN after 3 hrs by scintillation counting analysis
# T2 sequence (Q9H237 whole entry): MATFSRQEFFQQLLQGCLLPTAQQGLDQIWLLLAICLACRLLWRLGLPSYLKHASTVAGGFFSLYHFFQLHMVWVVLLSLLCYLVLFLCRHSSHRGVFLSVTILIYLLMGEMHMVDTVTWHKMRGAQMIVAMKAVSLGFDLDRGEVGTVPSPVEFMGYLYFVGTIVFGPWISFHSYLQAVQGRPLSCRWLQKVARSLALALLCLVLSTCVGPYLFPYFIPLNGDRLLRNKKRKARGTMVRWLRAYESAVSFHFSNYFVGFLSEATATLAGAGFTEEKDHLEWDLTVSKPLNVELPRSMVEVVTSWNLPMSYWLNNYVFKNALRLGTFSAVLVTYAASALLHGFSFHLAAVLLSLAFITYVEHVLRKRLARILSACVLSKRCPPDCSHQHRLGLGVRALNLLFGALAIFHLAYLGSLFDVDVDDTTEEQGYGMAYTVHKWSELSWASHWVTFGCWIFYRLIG
# [33] = Dose normalized Cmax in Balb/c mouse at 5 mg/kg via oral gavage after 24 hrs by LC/MS/MS analysis; format: ADME, organism-based; conditions: in vivo
# [34] = Dose normalized AUC in Balb/c mouse at 5 mg/kg via oral gavage after 24 hrs by LC/MS/MS analysis; format: ADME, organism-based; conditions: in vivo
structure (smiles),measurement,setting,value
Cc1cc(-c2ccc(NC(=O)Nc3ccc(-c4ccccc4)cc3)cc2)ccn1,IC50,[1],> 10000 nM
Cc1cc(CC(=O)Nc2ccc(-c3cnccn3)cn2)cnc1-c1ccnc(CO)c1,IC50,[1],26 nM
O=C(Cc1ccc(-c2ccncc2)cc1)Nc1nc(-c2ccccc2)cs1,IC50,[1],5.5 nM
Cc1cc(CC(=O)Nc2ccc(-c3cnccn3)cn2)cnc1-c1ccnc(F)c1,solubility at 24 h,[2],105 µM
Cc1cc(-c2ccc(CC(=O)Nc3ccc(-c4cnccn4)cn3)cn2)ccn1,solubility at 24 h,[2],16 µM
Cc1cc(-c2ncc(CC(=O)Nc3ccc(-c4cnccn4)cn3)cc2C)ccn1 [WNT-974],IC50,[1],0.4 nM
same,solubility at 24 h,[2],210 µM
Cc1cc(-c2ccc(CC(=O)Nc3ccc(-c4ccccc4)cn3)cn2)ccn1,IC50,[1],0.2 nM
same,solubility at 24 h,[2],6 µM
CC(=O)N1CCN(c2ccc(NC(=O)Cc3cnc(-c4ccnc(F)c4)c(C)c3)nc2)CC1,IC50,[1],0.8 nM
same,solubility at 24 h,[2],350 µM
same,clearance,[3],5.33 mL/min/kg
same,clearance,[4],5.35 mL/min/kg
same,clearance,[5],0.67 mL/min/kg
same,Vd,[6],0.57 L/kg
same,Vd,[7],0.7 L/kg
same,Vd,[8],0.25 L/kg
same,half-life,[9],2.44 h
same,half-life,[10],2.77 h
same,half-life,[11],8.86 h
same,bioavailability,[12],96%
same,bioavailability,[13],84%
same,bioavailability,[14],72%
same,IC50,[15],> 10000 nM
same,IC50,[16],> 10000 nM
same,IC50,[17],> 10000 nM
same,fraction unbound,[18],0.12
same,fraction unbound,[19],0.169
same,fraction unbound,[20],0.091
same,fraction unbound,[21],0.288
same,fraction unbound,[22],0.05
same,Papp A→B,[23],7.5 ×10⁻⁶ cm/s
same,efflux ratio,[24],3.2
same,inhibition in vivo at 3 mg/kg,[25],90%
same,inhibition,[26],inactive
same,T/C,[27],15%
same,T/C,[28],-74%
same,T/C,[29],-84%
same,Activity,[30],Non-Toxic
Cc1cc(-c2ccc(OC(=O)Nc3ccc(-c4ccccc4)cc3)cc2)ccn1,IC50,[1],> 10000 nM
Cc1cc(-c2ccc(CC(=O)Nc3ccc(-c4ccccn4)cn3)cn2)ccn1,solubility at 24 h,[2],17 µM
COc1ccc2nc(C(=O)NCc3ccc(-c4ccncc4)cc3)sc2c1,IC50,[1],380 nM
Cc1cc(-c2ccc(CC(=O)Nc3ccc(-c4ccccc4)cn3)cc2)ccn1,IC50,[1],0.7 nM
same,solubility at 24 h,[2],< 2 µM
Cc1cc(-c2ncc(CC(=O)Nc3ccc(-c4ccccn4)cn3)cc2C)ccn1,IC50,[1],0.4 nM
same,solubility at 24 h,[2],32 µM
COc1ccc2nc(NC(=O)Cc3ccc(-c4ccnc(C)c4)cc3)sc2c1,inhibition (INH),[31],Not Active
CCCn1c(SCC(=O)Nc2nc3ccc(OC)cc3s2)nnc1-c1ccncc1,IC50,[1],12 nM
same,IC50,[32],8 nM
same,Cmax/dose,[33],14 nM
same,AUC/dose,[34],0.03 µM·h
CC(=O)N1CCN(c2ccc(NC(=O)Cc3cnc(-c4ccnc(C)c4)c(C)c3)nc2)CC1,IC50,[1],0.7 nM
same,solubility at 24 h,[2],> 175 µM
COC(=O)N1CCN(c2ccc(NC(=O)Cc3cnc(-c4ccnc(C)c4)c(C)c3)nc2)CC1,solubility at 24 h,[2],> 175 µM
Cc1cc(CC(=O)Nc2ccc(N3CCNCC3)cn2)cnc1-c1ccnc(F)c1,IC50,[1],24 nM
COc1ccc2nc(NC(=O)Cc3ccc(-c4ccncc4)cc3)sc2c1,Cmax/dose,[33],4100 nM
same,AUC/dose,[34],26 µM·h
same,clearance,[3],2.49 mL/min/kg
same,IC50,[17],800 nM
